The values that follow come from patent publication US10617680B2 (CELGENE QUANTICEL RESEARCH, INC., priority 2017, dated 2020).

Chain of CBP (Q92793 1081-1197): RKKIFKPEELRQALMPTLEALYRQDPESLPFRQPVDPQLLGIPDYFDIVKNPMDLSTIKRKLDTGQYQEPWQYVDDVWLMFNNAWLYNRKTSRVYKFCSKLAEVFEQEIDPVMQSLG

The assay concerns the target CBP (Homo sapiens (Human), UniProt Q92793). Kind of assay: In vitro CBP inhibition (AlphaScreen, biotinylated H4-tetraacetyl peptide). The class given is binding. The following applies: AlphaScreen, Table 29; read-out: CBP IC50. The method, boiled down: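 His-tagged CBP expressed in E. coli (50 nM final) incubated with biotinylated H4K5/8/12/16(Ac) peptide (20 nM final) in 50 mM HEPES pH 7.3, 10 mM NaCl, 0.25 mM TCEP, 0.1% BSA, 0.005% Brij-35, 0.4% DMSO, 20 min at room temp.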
For orientation: In Alpha technology, singlet oxygen from a donor bead excites a nearby acceptor bead.
What is called IC50 is the concentration that gives 50% inhibition. `CC(c1ccccc1)n1cc(-c2cn(C)c(=O)cc2N2CCC2)cn1` (centres unmarked) [Example 40, 4-(azetidin-1-yl)-1-methyl-5-(1-(1-phenylethyl)-1H-pyrazol-4-yl) pyridin-2(1H)-one]: the IC50 was less than 500 nM.

Consider `Cn1cc(-c2cnn(Cc3ccccc3)c2)c(-c2ccsc2)cc1=O` [Example 117, 5-(1-benzyl-1H-pyrazol-4-yl)-1-methyl-4-(thiophen-3-yl) pyridin-2(1H)-one], for which the IC50 is less than 500 nM.

Turning to `COc1ccc(C(=O)O)c(-n2cc(-c3cn(C)c(=O)cc3-c3ccnc(OC)c3)cn2)c1` [Example 272, 4-Methoxy-2-[4-(2′-methoxy-1-methyl-6-oxo-1,6-dihydro-[4,4′]bipyridinyl-3-yl)-pyrazol-1-yl]-benzoic acid], the IC50 is less than 500 nM. Take `CC(C)Oc1ccc(-c2cc(=O)n(C)cc2-c2cnn(-c3cccc(Cl)c3C#N)c2)cn1` [Example 363, 2-chloro-6-[4-[4-(6-isopropoxy-3-pyridyl)-1-methyl-6-oxo-3-pyridyl]pyrazol-1-yl]benzonitrile]: the IC50 was less than 500 nM. In the case of `Cn1cc(-c2cnn(-c3cccc(Cl)c3C#N)c2)c(-c2cnc(N3CCOCC3)nc2)cc1=O` [Example 335, 2-chloro-6-(4-(1-methyl-4-(2-morpholinopyrimidin-5-yl)-6-oxo-1,6-dihydropyridin-3-yl)-1H-pyrazol-1-yl)benzonitrile] it was less than 500 nM. As to `Cc1c(-c2cn(C)c(=O)cc2-c2ccccc2)cnn1C` [Example 164, 5-(1,5-dimethyl-1H-pyrazol-4-yl)-1-methyl-4-phenylpyridin-2(1H)-one], the IC50 fell in the range of 500 to 5000 nM. In the case of `CCOc1cc(=O)n(C)cc1-c1cnn(-c2cccc(OC)c2C#N)c1` [Example 177, 2-[4-(4-Ethoxy-1-methyl-6-oxo-1,6-dihydro-pyridin-3-yl)-pyrazol-1-yl]-6-methoxy-benzonitrile] it was less than 500 nM; in that of `COc1ccc(C#N)cc1-n1cc(-c2cn(C)c(=O)cc2-c2ccc(Cl)cc2)cn1` [Example 307, 3-{4-[4-(4-Chloro-phenyl)-1-methyl-6-oxo-1,6-dihydro-pyridin-3-yl]-pyrazol-1-yl}-4-methoxy-benzonitrile], less than 500 nM. Regarding `COc1ccc(C#N)c(-n2cc(-c3cn(C)c(=O)cc3-c3ccc(F)cc3)cn2)c1` [Example 263, 2-{4-[4-(4-Fluoro-phenyl)-1-methyl-6-oxo-1,6-dihydro-pyridin-3-yl]-pyrazol-1-yl}-4-methoxy-benzonitrile], the 50% inhibitory concentration (IC50) is less than 500 nM.

Regarding `Cn1cc(-c2cnn(-c3cccc(F)c3C#N)c2)c(-c2ccc(C3CCCC3)nc2)cc1=O` [Example 378, 2-(4-(6-cyclopentyl-1′-methyl-6′-oxo-1′,6′-dihydro-[3,4′-bipyridin]-3′-yl)-1H-pyrazol-1-yl)-6-fluorobenzonitrile], the IC50 was less than 500 nM. As for `COc1ncc(-c2cc(=O)n(C)cc2-c2cnn(-c3ccccc3C#N)c2)cn1` [Example 244, 2-{4-[4-(2-Methoxy-pyrimidin-5-yl)-1-methyl-6-oxo-1,6-dihydro-pyridin-3-yl]-pyrazol-1-yl}-benzonitrile], the IC50 was less than 500 nM. As to `Cn1cc(-c2cnn(-c3cccc(C4CC4)c3C#N)c2)c(-c2ccn(CC3CC3)c(=O)c2)cc1=O` [Example 381, 2-cyclopropyl-6-[4-[4-[1-(cyclopropylmethyl)-2-oxo-4-pyridyl]-1-methyl-6-oxo-3-pyridyl]pyrazol-1-yl]benzonitrile], the IC50 is less than 500 nM. `Cn1cc(-c2cc(=O)n(C)cc2-c2cnn(CC3CC3(F)F)c2)cn1` (centres unmarked) [Example 192, 5-[1-(2,2-Difluoro-cyclopropylmethyl)-1H-pyrazol-4-yl]-1-methyl-4-(1-methyl-1H-pyrazol-4-yl)-1H-pyridin-2-one]: the IC50 is less than 500 nM. As to `Cn1cc(-c2cnn(Cc3ccccc3)c2)c(-c2cnn(C(F)F)c2)cc1=O` [Example 160, 5-(1-benzyl-1H-pyrazol-4-yl)-4-(1-(difluoromethyl)-1H-pyrazol-4-yl)-1-methylpyridin-2(1H)-one], the IC50 is less than 500 nM. As for `CCOc1cc(=O)n(C)cc1-c1cnn2c1CN(S(C)(=O)=O)CC2` [Example 392, 4-Ethoxy-5-(5-methanesulfonyl-4,5,6,7-tetrahydro-pyrazolo[1,5-a]pyrazin-3-yl)-1-methyl-1H-pyridin-2-one], the IC50 was less than 500 nM. In the case of `CCOc1cc(=O)n(C)cc1-c1cnn(-c2cc(OC3CC3)ccc2C(=O)O)c1` [Example 248, 4-Cyclopropoxy-2-[4-(4-ethoxy-1-methyl-6-oxo-1,6-dihydro-pyridin-3-yl)-pyrazol-1-yl]-benzoic acid] it was less than 500 nM. On to `Cc1ccc(-c2cc(=O)n(C)cc2-c2cnn(-c3cccc(F)c3C#N)c2)cn1` [Example 367, 2-(4-(1′,6-dimethyl-6′-oxo-1′,6′-dihydro-[3,4′-bipyridin]-3′-yl)-1H-pyrazol-1-yl)-6-fluorobenzonitrile], for which the IC50 is less than 500 nM.

Consider `CNOc1cc(=O)n(C)cc1-c1cnn(Cc2ccccc2)c1` [Example 170, 5-(1-benzyl-1H-pyrazol-4-yl)-1-methyl-4-((methylamino)oxy)pyridin-2(1H)-one], for which the IC50 is less than 500 nM. Next, `Cn1cc(-c2cnn(-c3ccccc3C(=O)O)c2)c(C2CC2)cc1=O` [Example 211, 2-[4-(4-Cyclopropyl-1-methyl-6-oxo-1,6-dihydro-pyridin-3-yl)-pyrazol-1-yl]-benzoic acid]: less than 500 nM. As for `Cn1cc(-c2cnn(-c3cccc(Cl)c3C#N)c2)c(-c2cnc(N3CCCC3)nc2)cc1=O` [Example 330, 2-chloro-6-(4-(1-methyl-6-oxo-4-(2-(pyrrolidin-1-yl)pyrimidin-5-yl)-1,6-dihydropyridin-3-yl)-1H-pyrazol-1-yl)benzonitrile], the IC50 was less than 500 nM. On to `CC(C)c1ccc(-c2cc(=O)n(C)cc2-c2cnn(-c3cccc(Cl)c3C#N)c2)cn1` [Example 376, 2-chloro-6-[4-[4-(6-isopropyl-3-pyridyl)-1-methyl-6-oxo-3-pyridyl]pyrazol-1-yl]benzonitrile], for which the IC50 is less than 500 nM. As for `CCOc1cc(=O)n(C)cc1-c1cnn(-c2cc(OC)ccc2C(=O)O)c1` [Example 247, 2-[4-(4-Ethoxy-1-methyl-6-oxo-1,6-dihydro-pyridin-3-yl)-pyrazol-1-yl]-4-methoxy-benzoic acid], the IC50 was less than 500 nM. Consider `Cn1cc(-c2cnn(Cc3ccccc3)c2)c(-c2ccc(C(=O)O)cc2)cc1=O` [Example 155, 4-(5-(1-benzyl-1H-pyrazol-4-yl)-1-methyl-2-oxo-1,2-dihydropyridin-4-yl)benzoic acid], for which the IC50 was less than 500 nM. `Cn1cc(-c2cnn(-c3cccc(Cl)c3C#N)c2)c(-c2ccc(C(F)(F)F)nc2)cc1=O` [Example 370, 2-chloro-6-(4-(1′-methyl-6′-oxo-6-(trifluoromethyl)-1′,6′-dihydro-[3,4′-bipyridin]-3′-yl)-1H-pyrazol-1-yl)benzonitrile]: the IC50 is less than 500 nM. As to `CC(c1cccc(Cl)c1)n1cc(-c2ccc(=O)n(C)c2)cn1` (centres unmarked) [Example 23, 5-(1-(1-(3-chlorophenyl)ethyl)-1H-pyrazol-4-yl)-1-methyl-pyridin-2(1H)-one], the IC50 is less than 500 nM. Turning to `Cn1cc(-c2cnn(-c3cccc(Cl)c3C#N)c2)c(-c2ccc(OCC3CC3)nc2)cc1=O` [Example 357, 2-chloro-6-[4-[4-[6-(cyclopropylmethoxy)-3-pyridyl]-1-methyl-6-oxo-3-pyridyl]pyrazol-1-yl]benzonitrile], the IC50 was less than 500 nM.
